{
  "source": "patent US20030104079A1",
  "about": "“Skin tissue regeneration promoters comprising ginsenoside Rb1” (Japan Science and Technology Corporation, Japan, priority 2000, published 2003)",
  "key": {"open wound of rat skin": {"system": "open wound of rat skin", "test": "Open wound healing by external or topical application to skin (propet ointment)", "format": "in vivo, rats", "details": "for action to promote wound healing: sprayed or spread on the local open wound of rats' skin, inventors' experiences", "excerpt": "For that purpose, for example, by using Wistar male rats (body weight about 300 g), the punch biopsies with diameter 6 mm were made in the dorsal region of animals after shaving under inhalation anesthesia to prepare 3 regions of open wound. Among them, 0.1 g of ophthalmic white Vaseline (Propet) containing 0.01% by weight or 0.001% by weight of ginsenoside Rb1 was spread once for every day in two regions, and in the remaining open wound, the equal amount of ophthalmic white Vaseline (propet) was spread. Nine days after preparing open wound, the skin including wound regions was photographed. Further, we have examined the effects of external or topical cutaneous spread of 0.0001% by weight, 0.00001% by weight or 0.000001% by weight of ginsenoside Rb1 by the same procedure. Experimental animals were euthanized by anesthetia immediately before photographing, then wound regions were dissected out after photographing or after dissecting out wound regions, photographing was performed. Thereafter, the wound region tissues were stored in the fixative. FIG. 5 and FIG. 6 are photographs in place of drawings.\nThe punch biopsy with diameter 6 mm was performed in the dorsal 6 regions of each animal under inhalation anesthesia to prepare open wound. Thereafter, 0.1 g of propet (ophthalmic white vaseline) containing ginsenoside Rb1 at the concentrations of 0.0001% by weight (10^−4% by weight), 0.00001% by weight (10^−5% by weight), 0.000001% by weight (10^−6% by weight), 0.0000001% by weight (10^−7% by weight) and 0.00000001% by weight (10^−8% by weight), respectively, was applied externally, once a day, for 9 days on each open wound. The equal amount of propet alone was applied externally or topically in the control animals. Then, immediately after euthanasia by anesthetization, the skin containing the open wound was dissected out and photographed. The collected skin tissue was preserved in a fixative. FIG. 12 is a photograph in place of drawing.\nIn each case, there are three wounds on the left side and three wounds on the right side, totally 6 marks of open wounds.\nIn the experimental cases hereinbefore explained, an area of open wound (flair region) applied externally only with propet is set as a denominator and an area of open wound administered externally with ginsenoside Rb1 at concentrations from 10^−4% by weight to 10^−8% by weight is set as a numerator, and ratio thereof is calculated. In FIG. 13, n=3 and single asterisk (*) indicates significant difference, P<0.05, and two asterisks (**) indicate significant difference, P<0.01. Statistical test was performed according to Scheffe's post hoc test.\nDetails of dihydroginsenoside Rb1 is described in the specification of PCT/JP00/04102 (Brain cell or nerve cell protecting agents comprising ginseng). The punch biopsy with diameter 6 mm was performed at 5 places in the dorsal region of rats (n=4) under inhalation anesthesia to prepare open wound. Thereafter, 0.1 g of propet containing dihydroginsenoside Rb1 at concentrations of 0.0001% by weight (10^−4% by weight), 0.00001% by weight (10^−5% by weight), 0.000001% by weight (10^−6% by weight) and 0.0000001% by weight (10^−7% by weight), respectively, was applied topically or externally, once a day, for 9 days onto each open wound. The equal amount of propet alone was applied externally or topically in the control animals. Then, immediately after euthanasia by anesthetization, the skin containing the open wound was dissected out and photographed. The collected skin tissue was preserved in a fixative. FIG. 14 is a photograph in place of drawing. In FIG. 14, four cases are shown, and from the upper column, the first case, the second case, the third case and the fourth case are shown."}, "[1]": {"system": "cultured nerve cells (neurons)", "test": "SNP-induced apoptosis of cultured nerve cells, MAP2 immunoblotting", "format": "cell-based, rats", "excerpt": "We (Sakanaka and Tanaka) had reported that when cultured nerve cells were exposed for a short time to sodium nitroprusside, apoptosis or apoptosis-like cell death of neurons is induced (Toku, K. et al., J. Neurosci. Res., 53, 415-425, 1998). […] We have examined the neuroprotective action of dihydroginsenoside Rb1 using the same experimental system.\nNerve cells were isolated from the cerebral cortices of fetal rats at gestation day 17 by using trypsin EDTA and seeded onto 24 well plate coated with poly-L-lysine. After incubating the cells in Dulbecco's modified Eagle's medium (DMEM) containing 10% fetal calf serum for 16 hours, the culture medium was replaced with a serum-free medium for neuronal culture containing insulin, transferrin, etc. and the neurons were cultured for 3 or 4 days. On day 3 or 4 of culture, sodium nitroprusside (SNP) at the concentration of 300 μM was added to the neuronal culture and incubated for 10 minutes. […] In order to quantify the survival rate of nerve cells or neurons, immunostained MAP2 band was analyzed with densitometry. […]\nNerve cells were isolated from cerebral cortices of fetal rats on gestation day 17 by using trypsin EDTA and seeded onto a 24 well plate(s) coated with poly-L-lysine. […] In order to quantify survival rate of nerve cells, immunostained MAP2 band was analyzed with densitometry."}, "[2]": {"test": "Observation of administered animals for side effects", "format": "in vivo, rats", "details": "present experiments, animals carefully observed", "excerpt": "The amount of administration of ginsenoside Rb1, which is used as the preparation(s) for external or topical application to skin or the preparation(s) for external or topical application to mucosa, is far smaller than the amount of intravenous administration.\nActually, as indicated in PCT/JP00/04102 (Brain cell or nerve cell protecting agents comprising ginseng), as far as directing treatment or therapy of cerebral infarction by continuous intravenous administration in a dose of […] (weighing 300 g), dihydroginsenoside Rb1 is thought to be a quite safe pharmaceutical composition. The amount of administration of ginsenoside Rb1, which is used as the preparation(s) for external or topical application to skin or the preparation(s) for external or topical application to mucosa, is far smaller than the amount of intravenous administration."}, "cerebral infarct lesion": {"system": "cerebral infarct lesion", "details": "intravenous 6 pg/day-60 pg/day, rats weighing 300 g; PCT/JP00/04102; cited from earlier work"}},
  "data": [
    {"compound": "CC(C)CCC[C@](C)(O[C@@H]1O[C@H](CO[C@@H]2O[C@H](CO)[C@@H](O)[C@H](O)[C@H]2O)[C@@H](O)[C@H](O)[C@H]1O)[C@H]1CC[C@]2(C)[C@@H]1[C@H](O)C[C@@H]1[C@@]3(C)CC[C@H](O[C@@H]4O[C@H](CO)[C@@H](O)[C@H](O)[C@H]4O[C@@H]4O[C@H](CO)[C@@H](O)[C@H](O)[C@H]4O)C(C)(C)[C@@H]3CC[C@]12C", "note": "[dihydroginsenoside Rb1]", "values": [
      {"measurement": "ratio of open wound area to propet alone (FIG. 15)", "setting": "open wound of rat skin; 0.00001% by weight (10^−5% by weight) or less, n=4, Fisher's PLSD P<0.05", "result": "facilitated significantly wound healing"},
      {"measurement": "therapeutic effect on open wound in rats", "setting": "open wound of rat skin; 0.0001% by weight (10^−4% by weight)", "result": "trivial"},
      {"measurement": "area of open wound region relative to control", "setting": "open wound of rat skin; dihydroginsenoside Rb1 at 10^−5%, 10^−6% or 10^−7% by weight", "result": "½-¼"},
      {"measurement": "hair growth in wound healing region (FIG. 14)", "setting": "open wound of rat skin; low concentrations of dihydroginsenoside Rb1", "result": "obvious hair growth was observed"},
      {"measurement": "wound healing vs propet alone (FIG. 14)", "setting": "open wound of rat skin; propet containing 10^−5% to 10^−7% by weight (100 ng/g to 1 ng/g), once a day for 9 days, n=4", "result": "wound healing was obviously promoted"},
      {"measurement": "apoptosis or apoptosis-like cell death of neurons caused by SNP, MAP2 band (FIG. 16)", "setting": "[1]; 0.01 fg/ml (lane 3) to 1 ng/ml (lane 7), SNP 300 μM 10 minutes, 16 hours after SNP", "result": "obviously inhibited"},
      {"measurement": "apoptosis or apoptosis-like cell death of nerve cells, MAP2 densitometry (FIG. 17)", "setting": "[1]; 0.01 fg/ml to 1 ng/ml, n=5, P<0.001 / P<0.0001", "result": "significantly inhibited"},
      {"measurement": "side effect in administered animals", "setting": "[2]", "result": "no side effect was noted"},
      {"measurement": "therapeutic effect on brain infarction", "setting": "cerebral infarct lesion", "result": "excellent therapeutic effect on brain infarction"}
    ]},
    {"compound": "EGF: epidermal growth factor", "values": [
      {"measurement": "action to promote wound healing", "setting": "open wound of rat skin", "result": "inferior to the effects of continuous intravenous administration of ginsenoside Rb1"}
    ]},
    {"compound": "PDGF", "values": [
      {"measurement": "action to promote wound healing", "setting": "open wound of rat skin", "result": "inferior to the effects of continuous intravenous administration of ginsenoside Rb1"}
    ]},
    {"compound": "bFGF: basic fibroblast growth factor", "values": [
      {"measurement": "action to promote wound healing", "setting": "open wound of rat skin", "result": "inferior to the effects of continuous intravenous administration of ginsenoside Rb1"}
    ]}
  ]
}
